{"source": "patent US20110280939A1", "about": "(EVEREST PHARM. INDUSTRIAL CO., LTD., priority 2007, published 2011)", "assay": "average excretion half time in human body", "note": "Counter-ions that a name gives are not always drawn.", "data": [{"smiles": "CN[C@@H](C)[C@@H](O)c1ccccc1", "note": "[pseudoephedrine hydrochloride]", "values": [{"measurement": "average excretion half time", "value": "4.76 ± 0.44", "unit": "h"}]}]}
